Laboratory results from PMC7265429, “Characterization of a new small-molecule inhibitor of HDAC6 in glioblastoma” (Cell Death & Disease, 2020).

System: GNS166 cells
Assay: Microarray whole-transcriptome gene expression analysis
Format: cell-based, human
Conditions: 5 µM SAHA vs DMSO
Protocol: Whole-transcriptome analysis was performed from 300 ng of RNA using HuGene-2_0-st-v1 expression array (Affymetrix), which covers 48,226 transcripts. Raw data were first checked for quality purposes through the Affymetrix® Expression Console™ Software v1.4.1 and TAC software v4.0. Then, data were normalized using the Robust Multi-array Average (RMA) and analyzed by Limma tool. Probesets with FDR-corrected p-values smaller than 0.05 were selected. Functional enrichment on Gene Ontology (GO) biological processes was performed on a smaller subset of the differentially expressed genes (corrected p-value < 0.001) by means of Broad Institute GSEA. […] The data that support this study have been deposited in NCBI´s Gene Expression Omnibus and are accessible through GEO series accession number GSE143887.

In the case of `O=C(CCCCCCC(=O)Nc1ccccc1)NO` [SAHA, Suberoylanilide hydroxamic acid], the “logFC, unannotated transcript” value (transcript 23067838) is reported as 2.48, the “logFC, unannotated transcript” value (transcript 23070274) is reported as 1.496 and the “logFC, unannotated transcript” value (transcript 23074046) is reported as 2.262. The “logFC, unannotated transcript” value (transcript 23076255) was 1.316, the “logFC, unannotated transcript” value (transcript 23076621) was 1.363 and the “logFC CLCN4” value (transcript TC0X00006593.hg.1) was 1.5774. For the same compound, the “logFC GRPR” value (transcript TC0X00006686.hg.1) was 2.105, the “logFC CNKSR2” value (transcript TC0X00006758.hg.1) was 1.439 and the “logFC TCEAL2” value (transcript TC0X00007965.hg.1) was 1.805. The “logFC CXorf57” value (transcript TC0X00008052.hg.1) was 2.567, the “logFC RNF128” value (transcript TC0X00008054.hg.1) was 2.588 and the “logFC TBC1D8B” value (transcript TC0X00008055.hg.1) was 1.963. For the same compound, the “logFC BCORL1” value (transcript TC0X00008394.hg.1) was 1.89, the “logFC SPANXB1” value (transcript TC0X00008599.hg.1) was 3.183 and the “logFC SPANXA2” value (transcript TC0X00008608.hg.1) was 1.528. The “logFC GABRQ” value (transcript TC0X00008747.hg.1) was 2.318, the “logFC SPRY3” value (transcript TC0X00008881.hg.1) was 1.925 and the “logFC ANOS1” value (transcript TC0X00009025.hg.1) was 2.202. For the same compound, the “logFC TMEM47” value (transcript TC0X00009356.hg.1) was 2.2, the “logFC SYN1” value (transcript TC0X00009576.hg.1) was 1.838 and the “logFC SLC7A3” value (transcript TC0X00009972.hg.1) was 2.306. For the same compound, the “logFC PCDH19” value (transcript TC0X00010326.hg.1) was 2.715, the “logFC GPC3” value (transcript TC0X00010851.hg.1) was 3.405 and the “logFC SPANXC” value (transcript TC0X00010990.hg.1) was 2.79. For the same compound, the “logFC TSPAN7” value (transcript TC0X00011279.hg.1) was 3.632, the “logFC SPANXD” value (transcript TC0X00011403.hg.1) was 2.719 and the “logFC SPRY3” value (transcript TC0Y00006855.hg.1) was 1.925. The “logFC AZIN2” value (transcript TC0100007705.hg.1) was 2.1884, the “logFC SGIP1” value (transcript TC0100008631.hg.1) was 2.667 and the “logFC WDR63” value (transcript TC0100008897.hg.1) was 2.0565. The “logFC PLPPR4” value (transcript TC0100009181.hg.1) was 3.131, the “logFC RIIAD1” value (transcript TC0100009969.hg.1) was 1.761 and the “logFC RGS4” value (transcript TC0100010393.hg.1) was 2.615. The “logFC RGL1” value (transcript TC0100010874.hg.1) was 1.6746, the “logFC HMCN1” value (transcript TC0100010921.hg.1) was 2.357 and the “logFC PLA2G4A” value (transcript TC0100010939.hg.1) was 2.146. For the same compound, the “logFC NFASC” value (transcript TC0100011316.hg.1) was 2.226, the “logFC SYT14” value (transcript TC0100011463.hg.1) was 1.552 and the “logFC PADI2” value (transcript TC0100013076.hg.1) was 2.104. For the same compound, the “logFC RAB3B” value (transcript TC0100014191.hg.1) was 2.825, the “logFC EXTL2” value (transcript TC0100015079.hg.1) was 1.8773 and the “logFC TXNIP” value (transcript TC0100015598.hg.1) was 1.6929. For the same compound, the “logFC TDRKH” value (transcript TC0100015803.hg.1) was 1.45, the “logFC CRABP2” value (transcript TC0100016018.hg.1) was 2.073 and the “logFC TNFSF18” value (transcript TC0100016427.hg.1) was 2.171. The “logFC NMNAT2” value (transcript TC0100016649.hg.1) was 2.678, the “logFC KCNT2” value (transcript TC0100016822.hg.1) was 1.691 and the “logFC SUSD4” value (transcript TC0100017446.hg.1) was 2.012. The “logFC CHML” value (transcript TC0100017948.hg.1) was 2.064, the “logFC EFNA3” value (transcript TC0100018303.hg.1) was 2.427 and the “logFC CREG1” value (transcript TC0100018528.hg.1) was 1.58. The “logFC ATP6V1C2” value (transcript TC0200006703.hg.1) was 1.305, the “logFC DPYSL5” value (transcript TC0200007047.hg.1) was 2.839 and the “logFC CHAC2” value (transcript TC0200007590.hg.1) was 1.314. The “logFC MERTK” value (transcript TC0200008894.hg.1) was 2.244, the “logFC B3GALT1” value (transcript TC0200009889.hg.1) was 2.683 and the “logFC FAM171B” value (transcript TC0200010219.hg.1) was 2.2716. For the same compound, the “logFC MAP2” value (transcript TC0200010636.hg.1) was 3.414, the “logFC BCL11A” value (transcript TC0200012713.hg.1) was 2.328 and the “logFC PAIP2B” value (transcript TC0200013021.hg.1) was 1.841. For the same compound, the “logFC KCNH7” value (transcript TC0200014775.hg.1) was 2.8124, the “logFC SCN9A” value (transcript TC0200014819.hg.1) was 2.356 and the “logFC LRP2” value (transcript TC0200014851.hg.1) was 2.542. For the same compound, the “logFC FKBP7” value (transcript TC0200015082.hg.1) was 2.583, the “logFC CALCRL” value (transcript TC0200015193.hg.1) was 2.705 and the “logFC SLC40A1” value (transcript TC0200015211.hg.1) was 1.178. The “logFC MSTN” value (transcript TC0200015221.hg.1) was 1.434, the “logFC STAT4” value (transcript TC0200015246.hg.1) was 1.771 and the “logFC EPHA4” value (transcript TC0200015815.hg.1) was 1.855. The “logFC ITPR1” value (transcript TC0300006477.hg.1) was 1.259, the “logFC GRAMD1C” value (transcript TC0300008371.hg.1) was 3.533 and the “logFC STXBP5L” value (transcript TC0300008524.hg.1) was 1.686. For the same compound, the “logFC TMEM108” value (transcript TC0300008853.hg.1) was 1.4353, the “logFC PLS1” value (transcript TC0300009033.hg.1) was 1.34 and the “logFC MLF1” value (transcript TC0300009310.hg.1) was 1.587. The “logFC SERPINI1” value (transcript TC0300009412.hg.1) was 3.206, the “logFC GPR160” value (transcript TC0300009459.hg.1) was 1.716 and the “logFC VGLL3” value (transcript TC0300011706.hg.1) was 1.982. The “logFC IGSF11” value (transcript TC0300012109.hg.1) was 2.1969, the “logFC SLITRK3” value (transcript TC0300013022.hg.1) was 1.701 and the “logFC LAMP3” value (transcript TC0300013336.hg.1) was 2.279. The “logFC CLDN1” value (transcript TC0300013520.hg.1) was 1.599, the “logFC CEP19” value (transcript TC0300013719.hg.1) was 1.62 and the “logFC IFT80” value (transcript TC0300014074.hg.1) was 1.3192. The “logFC CCDC39” value (transcript TC0300014078.hg.1) was 2.854, the “logFC WDR19” value (transcript TC0400007280.hg.1) was 1.361 and the “logFC GABRB1” value (transcript TC0400007419.hg.1) was 2.377. The “logFC CYP2U1” value (transcript TC0400008347.hg.1) was 1.641.
